The source of these data is patent US7373256B2, “Method for the identification of molecules and biomarkers using chemical, biochemical and biological data” (priority 2005, dated 2008).

The subject of data set [1] is rats. Kind of data set: Study 5: 1H/19F NMR correlation study of urine from rats dosed with 3-fluoroaniline. It is filed as in vivo, rat. The following applies: 50 mg/kg, negative covariance with 19F δ-128.4 resonance. As for the experimental part:
A number of rats were dosed with 3-fluoroaniline (3-FA) at 50 mg/kg. Urine samples were collected over dry ice (i) pre-dose, (ii) after 0-24 hours, and (iii) after 24-48 hours. ^1H NMR and ^1H-decoupled ^19F NMR spectra were collected. The collection of ^1H NMR spectra was treated as a first data set (i.e., a matrix with one row for each ^1H NMR spectrum, and one column for each ^1H NMR chemical shift variable, n x p) and the collection of ^19F-NMR spectra was treated as a second data set (i.e., a matrix with one row for each ^19F NMR spectrum, and one column for each ^19F NMR chemical shift variable, n×q). The correlation matrix and the covariance matrix (each p×q or q×p) were calculated.
This resonance was selected for the correlation study.
As mentioned above, the correlation matrix and the covariance matrix (each p×q or q×p) were calculated. The correlation between the selected variable (^19F δ-128.4) of the first data set and all of the variables of the second data set (i.e., the range of ^1H δ) is given in the column/row of the correlation matrix associated with this variable (i.e., the column/row for ^19F δ-128.4). The covariance between this variable (^19F δ-128.4) and all of the variables of the second data set (i.e., the range of ^1H δ) is given in the column/row of the covariance matrix associated with this variable (i.e., the column/row for ^19F δ-128.4). […]

Data set [2] relates to rats. Kind of data set: Study 7: 1H NMR / UPLC-MS correlation study of urine from rats dosed with hydrazine. Type of data set: in vivo, rat. The following applies: hydrazine poisoning. As for the experimental part: A number of rats were dosed with hydrazine. Urine samples were collected. ^1H NMR and mass spectra were recorded for each sample. (Note that the mass spectra were recorded using an UPLC-MS experiment, in which individual mass spectra are recorded as function of elution time, here over a period of six minutes with a water-acetonitrile gradient; however, for the present study, these spectra were “summed” in order to present a single mass spectrum for each sample. This gives, in effect, “virtual direct injection mass spectra.” This is a known approach for improving MS detection in complex mixtures.)
The collection of ^1H NMR spectra was treated as a first data set (i.e., a matrix with one row for each ^1H NMR spectrum, and one column for each ^1H NMR chemical shift variable, n×p) and the collection of mass spectra was treated as a second data set (i.e., a matrix with one row for each mass spectrum, and one column for each m/z variable, n×q). The correlation matrix and the covariance matrix (each p×q or q×p) were calculated. A correlation map illustrating a part of the correlation matrix, as a function of both ^1H chemical shift (from about δ 2 to about δ 4.5) and m/z (from about 100 to about 350), is shown in FIG. 21. The correlation is indicated by colour (blue is negative correlation and red is positive correlation). A “summed” ^1H NMR spectrum is shown alongside the ^1H δ axis for illustration. Similarly, a “summed” mass spectrum is shown alongside the m/z axis for illustration.
A correlation map illustrating another (very small) part of the correlation matrix is shown in FIG. 22, specifically for ^1H chemical shift from about δ 8.8 to about δ 9.3 and m/z from about 80 to about 200. Again, a “summed” ^1H NMR spectrum is shown alongside the ^1H δ axis for illustration. Similarly, a “summed” mass spectrum is shown alongside the m/z axis for illustration. […] As expected, the mass spectrum peak at m/z 138 (for NMNA) is highly correlated with the ^1H NMR peaks at about δ 9.12 about δ 8.84 (also for NMNA). […]

For data set [3], the system named is rats. The following applies: hydrazine poisoning; stated as well known; cited from earlier work.

The structures appear in SMILES notation.

Turning to `Nc1cccc(F)c1` [3-fluoroaniline], the “effect on endogenous hippurate level in urine” value with rats [1] was “reduces the amount of hippurate”.
As to `NN` [hydrazine], the “change in urinary creatine” value with rats [2] (m/z 90, 116) is recorded as “increased”. For the same compound, the “change in urinary 2-aminoadipate” value in the data set with rats [2] (m/z 98, 116) is given as “increased”. The “change in urinary hippurate” value with rats [2] (m/z 105, 180) is listed as “decreased”. For the same compound, in the data set with rats [3], the “change in N-methylnicotinamide (NMND)” value is recorded as “increase” and the “change in N-methylnicotinic acid (NMNA)” value is listed as “decrease”.
